In publication PMC8849047, “Salicylate metal-binding isosteres as fragments for metalloenzyme inhibition” (Chemical Science, 2022):
Like-named read-outs stand apart in the source and are kept apart here.

Columns and labels:
[1] = biological target: T1, Human recombinant MMP-3 catalytic domain (Homo sapiens, UniProt P08254); experiment: MMP-3 enzyme inhibition assay (chromogenic substrate, 412 nm); type: biochemical; conditions: standard deviation in parentheses, read-out: %inhib MMP-3
T1 construct: Human recombinant MMP-3 catalytic domain was purchased; purchased ENZO Life Sciences BML-SE109-9090
Method: To probe the selectivity of the salicylate MBIs, the library was screened against matrix metalloproteinase-3 (MMP-3) at fragment concentrations of 100 μM (Table 2).
Human recombinant MMP-3 catalytic domain was purchased from ENZO Life Sciences (catalog # BML-SE109-9090). Assays were carried out in clear Costar 96-well, half-area, flat-bottom assay plates (catalog # 80-2404). Each well contained a total volume of 100 μL including buffer (50 mM MES, 10 mM CaCl2, 0.05% Brij-35, 1 mM DNTB, pH 6.0), MMP-3 (2 U), and the fragment solution. After a 30 min incubation period at 37 °C, the reaction was initiated by the addition of 10 μL of chromogenic MMP-3 substrate (100 μM final concentration, Ac-Pro-Leu-Gly-[2-mercap-to-4-methyl-pentanoyl]-Leu-Gly-OC2H5, ENZO Life Sciences, catalog #BML-P125-0005). Absorbance was monitored at 412 nm using a Bio-Tek ELx 808 colorimetric plate reader, and measurements were recorded every minute for 10 min. The rate of absorbance increase was compared for samples versus negative controls (no inhibitor, arbitrarily set as 100% activity).
5. Single Point screening […]
Figure S5. Single point screening of salicylate MBI library against MMP-3 at 100 µM inhibitor
concentration. NNGH as positive control.

[2] = log P by potentiometric titration octanol/water (Sirius T3); log D7.4 calculated from pKa and log P; type: physicochemical
Method: In addition to gaining an understanding about the metal coordinating properties of the salicylate MBIs by using [(Tp^Ph,Me)Zn(MBI)] model complexes, the physicochemical properties of the MBIs were also studied. The acidity (pKa) and lipophilicity (log P) were measured using potentiometric methods and the lipophilicity at physiological pH (log D7.4) was calculated from these two values (Table 1).[23–25]
Physicochemical properties were determined using a Sirius T3 instrument.[23–25] […] The pKa of a compound was determined by analysing each MBI sample in triplicate using potentiometric titrations. Experiments were typically performed over a pH range of 2.0–12.0. Standard deviations were derived from fitting all three replicate experiments. For water insoluble compounds methanol was added and the obtained apparent pKa (psKa) was extrapolated to the aqueous pKa by the Yasuda–Shedlovsky procedure. log P was determined via potentiometric titrations in the presence of varying ratios of octanol and water. The presence of octanol shifts the pKa of ionizable species, and based on the shifts, a log P can be determined. Measurements for log P determination were typically performed over a pH range of 2.0–12.0. Three experiments with varying ratios of water:octanol was performed, allowing for a standard deviation to be determined from the fitting of all measurements. MBI sample sizes were ∼0.5 mg for both pKa and log P measurements.

[3] = test system: influenza H1N1 N-terminal PA endonuclease (PAN); experiment: PAN endonuclease inhibition assay (fluorescent ssDNA-oligo substrate); type: biochemical; conditions: 100 μM; standard deviation in parentheses
[4] = biological target: T2, Recombinant human glyoxalase I (GLO1) (Homo sapiens, UniProt Q04760); experiment: GLO1 enzyme inhibition assay (absorbance at 240 nm); type: biochemical; conditions: for inhibition at 100 µM: read-out: %inhib GLO1
T2 construct: purchased R&D Systems 4959-GL
T2 sequence (Q04760 2-184 limits assumed): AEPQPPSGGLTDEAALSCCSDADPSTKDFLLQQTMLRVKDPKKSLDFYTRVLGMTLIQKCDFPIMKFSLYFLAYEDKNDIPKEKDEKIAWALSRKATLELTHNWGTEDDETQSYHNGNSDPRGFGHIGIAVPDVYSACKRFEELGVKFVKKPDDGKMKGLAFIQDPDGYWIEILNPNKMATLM
Method: To evaluate if the salicylate MBIs could serve as starting points for future FBDD campaigns, the MBI library was screened for inhibitory activity against human glyoxalase I (GLO1) at fragment concentrations of 100 μM (Table 2). […] Recombinant human glyoxalase I (GLO1) was purchased from R&D Systems (catalog #4959-GL). Assays were carried out in 0.1 M sodium phosphate, pH 7.0 buffer, utilizing 96-well clear UV plates (Corning UV Transparent Microplates, catalog #3635). A fresh solution of GSH (100 mM) and methylglyoxal (MG) (100 mM) was prepared in Millipore grade water. […] The substrate mixture was vortexed vigorously for 45 s and then allowed to sit at room temperature for 15 min. The initial well volume was 50 μL containing GLO1 (40 ng) and inhibitor. This protein and inhibitor mixture was incubated for 15–20 min prior to addition of the substrate. […] The enzyme activity was measured utilizing a Biotek Synergy HT or H4 plate reader by measuring absorbance at 240 nm every 1 min for a duration of 8 min. The rate of absorbance increase was compared for samples versus controls containing no inhibitor (set at 100% activity). The absorbance reading for background wells containing DMSO, buffer, and substrate (no enzyme or inhibitor) was subtracted from the experimental wells. […] Dose-response curves were generated, analysed and fitted to obtain IC50 values (see ESI ^†).
5. Single Point screening
Single point screening of salicylate MBI library against GLO1 at 100 µM inhibitor concentration. Chugai 1 (4,6-diphenyl-N-hydroxypyridone) 4 as positive control. […]
6. Dose-response curves against GLO1
The raw data from the GLO1 assay was background corrected and normalized from 0 to 100 with 100 being the largest mean of each dataset. A variable slope log-logistic model was chosen for curve fitting.
The corresponding datapoints are shown as empty bullets and were not included in the curve-fitting. The resulting restricted datasets were fitted according to a literature procedure setting the lower limit of the dose-response curve to zero. This compensates for the loss of information caused by trimming of the dataset. 5,6
Figure S7. Dose-response curve of 11 against GLO1.

[5] = biological target: T2, Recombinant human glyoxalase I (GLO1); set-up: method as in previous studies (unpublished); conditions: ref previous studies (unpublished); read-out: IC50 against GLO1; cited from earlier work
[6] = type: physicochemical
Source text: This was confirmed by computationally calculated physicochemical data (Tables S2 and S3 ^†).

[7] = 100 μM, standard deviation in parentheses

T1 sequence (P08254 100-272 limits assumed): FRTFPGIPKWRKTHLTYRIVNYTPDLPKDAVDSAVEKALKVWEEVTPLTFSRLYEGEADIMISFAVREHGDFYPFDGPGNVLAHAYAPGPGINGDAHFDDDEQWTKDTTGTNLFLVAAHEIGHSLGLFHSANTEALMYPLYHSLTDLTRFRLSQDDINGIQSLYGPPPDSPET

O=C(O)c1ccccc1O [Compound 1, Salicylic acid, reference compound]
inhibition at 100 µM [1]: 8%
logP [2]: 2.18
logD ([2]; pH 7.4): -2.4
%inhib Endo (PAN) [3]: 12 (7) %
inhibition at 100 µM [4, 7]: 22%
IC50 [5]: > 50 µM

Oc1ccccc1-c1nc2ccccc2s1 [Compound 11]
inhibition at 100 µM [1]: 0%
aqueous solubility [6]: poor aqueous solubility
%inhib Endo (PAN) [3]: 21 (6) %
%inhib GLO1 [4, 7]: almost complete inhibition
inhibition at 100 µM [4, 7]: 94%
IC50 ([4]; dose-response curves, read-out: IC50 against GLO1): 19.6 ± 4.7 µM

CS(=O)(=O)Nc1ccccc1-c1nc2ccccc2s1 [Compound 27]
inhibition at 100 µM [1]: 0%
aqueous solubility [6]: poor aqueous solubility
%inhib Endo (PAN) [3]: 15 (7) %
inhibition at 100 µM [4, 7]: 44%

c1ccc2sc(-c3cccc4nc[nH]c34)nc2c1 [Compound 28]
aqueous solubility [6]: poor aqueous solubility
%inhib Endo (PAN) [3]: 4 (8) %
